In patent US20160209428A1, “DIAGNOSTIC AND PREDICTIVE METABOLITE PATTERNS FOR DISORDERS AFFECTING THE BRAIN AND NERVOUS SYSTEM” (THE REGENTS OF THE UNIVERSITY OF CALIFORNIA, priority 2013, published 2016):

Key:
Assay type in all cases: in vivo
[1] = tested on: Fragile X (Fmr1) knockout mouse; assay: Marble burying, Fragile X model; settings: KO-Sal v KO-Sur
Protocol: Marble burying behavior was measured over 30 minutes by a modification of methods used by Thomas, et al. (Thomas et al., 2009). Marble burying was used as a measure of normal rodent digging behavior. Marble burying has sometimes been considered a measure of anxiety, however, comprehensive genetic and behavioral studies have shown that marble burying is a normal mouse behavior that is genetically determined (Thomas et al., 2009). Marble burying was diminished 38% in Fragile X knockout mice.

[2] = tested on: Fragile X (Fmr1) knockout mouse; assay: Body temperature measurements (rectal core temperature)
Protocol: A BAT-12 Microprobe digital thermometer and RET-3 mouse rectal probe (Physitemp Instruments, Clifton, N.J.) were used to obtain rectal core temperatures to a precision of +/−0.1° C. Care was taken to measure temperatures ≧2 days after cage bedding changes, and to avoid animal transport stress immediately prior to measurement in order to avoid stress-induced hyperthermia (Adriaan Bouwknecht et al., 2007). Temperatures were measured between 9 am to 12 noon each day.
Normal basal body temperature was restored by antipurinergic therapy with suramin.

[3] = tested on: Fragile X (Fmr1) knockout mouse; assay: Plasma metabolomics after weekly suramin or saline, Fragile X model; settings: for Suramin Treatment Effect (KO-Sur/KO-Sal): Fragile X KO
Protocol: Samples were analyzed on an AB SCIEX QTRAP 5500 triple quadrupole mass spectrometer equipped with a Turbo V electrospray ionization (ESI) source, Shimadzu LC-20A UHPLC system, and a PAL CTC autosampler (AB ACIEX, Framingham, Mass., USA). […] Plasma was separated by centrifugation at 600 g×5 minutes at 20° C. within one hour of collection. Fresh lithium-heparin plasma was transferred to labeled tubes for storage at −80° C. for analysis. Typically 45 μl of plasma was thawed on ice and transferred to a 1.7 ml Eppendorf tube. Two and one-half (2.5) μl of a cocktail containing 35 commercial stable isotope internal standards, and 2.5 μl of 310 stable isotope internal standards that were custom-synthesized in E. coli and S. cerevisiae by metabolic labeling with ^13C-glucose and ^13C-bicarbonate, were added, mixed, and incubated for 10 min at room temperature to permit small molecules and vitamins in the internal standards to associate with plasma binding proteins. Macromolecules (protein, DNA, RNA, etc.) were precipitated by extraction with 4 volumes (200 μl) of cold (−20° C.), acetonitrile:methanol (50:50) (LCMS grade, Cat#LC015-2.5 and GC230-4, Burdick & Jackson, Honeywell), vortexed vigorously, and incubated on crushed ice for 10 min, then removed by centrifugation at 16,000 g×10 min at 4° C. The supernatants containing the extracted metabolites and internal standards in the resulting 40:40:20 solvent mix of acetonitrile:methanol:water were transferred to labeled cryotubes and stored at −80° C. for LC-MS/MS (liquid chromatography-tandem mass spectrometry) analysis.
LC-MS/MS analysis was performed by multiple reaction monitoring (MRM) under Analyst v1.6.1 (AB SCIEX, Framingham, Mass., USA) software control in both negative and positive mode with rapid polarity switching (50 ms). Nitrogen was used for curtain gas (set to 30), collision gas (set to high), ion source gas 1 and 2 (set to 35). The source temperature was 500° C. Spray voltage was set to −4500 V in negative mode and 5500 V in positive mode. The values for Q1 and Q3 mass-to-charge ratios (m/z), declustering potential (DP), entrance potential (EP), collision energy (CE), and collision cell exit potential (CXP) were determined and optimized for each MRM for each metabolite. Ten microliters of extract was injected by PAL CTC autosampler into a 250 mm×2 mm, 5 μm Luna NH2 aminopropyl HPLC column (Phenomenex, Torrance, Calif., USA) held at 25° C. for chromatographic separation. […] The flow rate was 300 μl/min. All the samples were kept at 4° C. during analysis. The chromatographic peaks were identified using MultiQuant (v3.0, AB SCIEX), confirmed by manual inspection, and the peak areas integrated. The median of the peak area of stable isotope internal standards was calculated and used for the normalization of metabolites concentration across the samples and batches. Prior to multivariate and univariate analysis, the data were log-transformed.
A rendering of mammalian intermediary metabolism was constructed in Cytoscape v 3.1.1 (see, e.g., [http://]www.cytoscape.org/). […] Nodes in the Cytoscape network represent metabolites within the pathways and have been colored according to the Z-score. The Z-score was computed as the arithmetic difference between the mean concentration of each metabolite in the KO-Sur treatment group and the KO-Sal control group, divided by the standard deviation in the controls. Node colors were arranged on a red-green color scale with green representing −2.00 Z-score, red representing +2.00 Z-score, and with a zero (0) Z-score represented as white.
Group means and standard error of the means (SEM) are reported. Behavioral data were analyzed by two-way ANOVA and one-way ANOVAs (GraphPad Prism 5.0d, GraphPad Software Inc., La Jolla, Calif., USA, or Stata/SE v12.1, StataCorp, College Station, Tex., USA). Pair-wise post hoc testing was performed by the method of Tukey or Newman-Keuls. Significance was set at p<0.05.

Cc1ccc(C(=O)Nc2ccc(S(=O)(=O)O)c3cc(S(=O)(=O)O)cc(S(=O)(=O)O)c23)cc1NC(=O)c1cccc(NC(=O)Nc2cccc(C(=O)Nc3cc(C(=O)Nc4ccc(S(=O)(=O)O)c5cc(S(=O)(=O)O)cc(S(=O)(=O)O)c45)ccc3C)c2)c1 [Suramin, suramin]
diminished marble burying [1]: improved | body temperature of control animals ([2]; WT-Sal vs WT-Sur): no effect | basal body temperature of Fmr1 knockout mice ([2]; relative hypothermia of knockout, suramin treatment): restored | Suramin Treatment Effect (KO-Sur/KO-Sal) ([3]; Bile Salt Metabolism, plasma): Increased | Suramin Treatment Effect (KO-Sur/KO-Sal) ([3]; Branch Chain Amino Acid Metabolism, plasma): Increased | Suramin Treatment Effect (KO-Sur/KO-Sal) ([3]; Cardiolipin Metabolism, plasma): Decreased | Suramin Treatment Effect (KO-Sur/KO-Sal) ([3]; Cholesterol, Cortisol, Non-Gonadal Steroid Metabolism, plasma): 2/2 Increased | Suramin Treatment Effect (KO-Sur/KO-Sal) ([3]; Eicosanoid and Resolvin Metabolism, plasma): 4/6 Increased | Suramin Treatment Effect (KO-Sur/KO-Sal) ([3]; Fatty Acid Oxidation and Synthesis, plasma): 9/9 Decreased | Suramin Treatment Effect (KO-Sur/KO-Sal) ([3]; Ganglioside Metabolism, plasma): 6/6 Increased | Suramin Treatment Effect (KO-Sur/KO-Sal) ([3]; Glycolysis and Gluconeogenesis, plasma): 2/2 Decreased | Suramin Treatment Effect (KO-Sur/KO-Sal) ([3]; Isoleucine, Valine, Threonine, or Methionine Metabolism, plasma): Increased | Suramin Treatment Effect (KO-Sur/KO-Sal) ([3]; Krebs Cycle, plasma): Increased | Suramin Treatment Effect (KO-Sur/KO-Sal) ([3]; Microbiome Metabolism, plasma): 2/3 Decreased | Suramin Treatment Effect (KO-Sur/KO-Sal) ([3]; Nitric Oxide, Superoxide, Peroxide Metabolism, plasma): Increased | Suramin Treatment Effect (KO-Sur/KO-Sal) ([3]; Pentose Phosphate, Gluconate Metabolism, plasma): Increased | Suramin Treatment Effect (KO-Sur/KO-Sal) ([3]; Phospholipid Metabolism, plasma): 6/6 Increased | Suramin Treatment Effect (KO-Sur/KO-Sal) ([3]; Purine Metabolism, plasma metabolites with VIP >=1.5, weekly suramin vs saline): 4/5 Decreased | Suramin Treatment Effect (KO-Sur/KO-Sal) ([3]; Pyrimidine Metabolism, plasma): Decreased | Suramin Treatment Effect (KO-Sur/KO-Sal) ([3]; SAM, SAH, Methionine, Cysteine, Glutathione Metabolism, plasma): 3/3 Increased | Suramin Treatment Effect (KO-Sur/KO-Sal) ([3]; Sphingolipid Metabolism, plasma): 3/5 Decreased | Suramin Treatment Effect (KO-Sur/KO-Sal) ([3]; Vitamin B3 (Niacin, NAD+) Metabolism, plasma): 1/2 Increased | Suramin Treatment Effect (KO-Sur/KO-Sal) ([3]; Vitamin B6 (Pyridoxine) Metabolism, plasma): Increased | Suramin Treatment Effect (KO-Sur/KO-Sal) ([3]; all 20 of 60 Pathways Dysregulated, top 58 metabolites, plasma): 33/58 Increased | acyl-carnitine species with generalized decrease ([3]; plasma, Fmr1 KO mice, suramin treatment): 9 of 9 | biochemical pathways with pharmacometabolomic changes ([3]; plasma, Fmr1 KO mice, weekly suramin): 20 of 60
